Legend:
CGRP receptor [1] = target: T1, CGRP receptor (Homo sapiens, UniProt O60894+Q16602); experiment: Cyclic AMP functional antagonism assay in SK-N-MC cells; type: cell-based; set-up: SK-N-MC cells that endogenously express the human CGRP receptor; endogenous in cells; host or cells: SK-N-MC cells; conditions: Table 2; inhibition of 0.3 nM CGRP-induced cAMP in SK-N-MC cells; read-out: cAMP Function IC50
Protocol: Cyclic AMP Functional Antagonism Assay. Antagonism of the compounds of invention was determined by measuring the formation of cyclic AMP (adenosine 3′5′-cyclic monophosphate) in SK-N-MC cells that endogenously express the human CGRP receptor. CGRP receptor complex is coupled with Gs protein and CGRP binding to this complex leads to the cyclic AMP production via Gs-dependent activation of an adenylate cyclase (Juaneda C. et al., TiPS, 2000; 21:432-438). Consequently, CGRP receptor antagonists inhibit CGRP—induced cyclic AMP formation in SK-N-MC cells (Doods H, et al., Br J Pharmacol, 2000; 129(3):420-423). For cyclic AMP measurements SK—N-MC cells were incubated with 0.3 nM CGRP alone or in the presence of various concentrations of the compounds of invention for 30 min at room temperature. Compounds of invention were pre-incubated with SK—N-MC cells for 15 min before the addition of CGRP to allow receptor occupancy (Edvinsson et al., Eur J Pharmacol, 2001, 415:39-44). Cyclic AMP was extracted using the lysis reagent and its concentration was determined by radioimmunoassay using RPA559 cAMP SPA Direct Screening Assay Kit (Amersham Pharmacia Biotech). IC50 values were calculated using Excel fit.

CGRP receptor [2] = target: T1, CGRP receptor; experiment: CGRP radioligand binding assay ([125I]-CGRP displacement, SK-N-MC homogenate); set-up: endogenous in cells; host or cells: SK-N-MC cells (homogenate/membrane pellet); conditions: displacement of [125I]-CGRP, SK-N-MC membranes
Protocol: CGRP Binding Assay. Tissue Culture. SK-N-MC cells were grown at 37° C. in 5% CO2 as a monolayer in medium consisting of MEM with Earle's salts and L-glutamine (Gibco) supplemented with 10% fetal bovine serum (Gibco). Cell Pellets. The cells were rinsed twice with phosphate-buffered saline (155 mM NaCl, 3.3 mM Na2HPO4, 1.1 mM KH2PO4, pH 7.4), and incubated for 5-10 min. at 4° C. in hypotonic lysis buffer consisting of 10 mM Tris (pH 7.4) and 5 mM EDTA. The cells were transferred from plates to polypropylene tubes (16×100 mm) and homogenized using a polytron. Homogenates were centrifuged at 32,000×g for 30 min. The pellets were resuspended in cold hypotonic lysis buffer with 0.1% mammalian protease inhibitor cocktail (Sigma) and assayed for protein concentration. The SK-N-MC homogenate was then aliquoted and stored at −80° C. until needed.
Radioligand Binding Assay. The compounds of invention were solubilized and carried through serial dilutions using 100% DMSO. Aliquots from the compound serial dilutions were further diluted 25 fold into assay buffer (50 mM Tris-Cl pH 7.5, 5 mM MgCl2, 0.005% Triton X-100) and transferred (volume 50 μl) into 96 well assay plates. [^125I]-CGRP (Amersham Biosciences) was diluted to 60 pM in assay buffer and a volume of […] was added to each well. SK-N-MC pellets were thawed, diluted in assay buffer with fresh 0.1% mammalian protease inhibitor cocktail (Sigma), and homogenized again. SK-N-MC homogenate (5 μg/well) was added in a volume of 100 μl. The assay plates were then incubated at room temperature for 2 h. Assays were stopped by addition of excess cold wash buffer (20 mM Tris-Cl pH 7.5, 0.1% BSA) immediately followed by filtration over glass fiber filters (Whatman GF/B) previously soaked in 0.5% PEI. Non-specific binding was defined with 1 μM beta-CGRP. Protein bound radioactivity was determined using a gamma or scintillation counter. The IC50 was defined as the concentration of a compound of invention required to displace 50% of radioligand binding.

T1 sequence (Q16602 23-461): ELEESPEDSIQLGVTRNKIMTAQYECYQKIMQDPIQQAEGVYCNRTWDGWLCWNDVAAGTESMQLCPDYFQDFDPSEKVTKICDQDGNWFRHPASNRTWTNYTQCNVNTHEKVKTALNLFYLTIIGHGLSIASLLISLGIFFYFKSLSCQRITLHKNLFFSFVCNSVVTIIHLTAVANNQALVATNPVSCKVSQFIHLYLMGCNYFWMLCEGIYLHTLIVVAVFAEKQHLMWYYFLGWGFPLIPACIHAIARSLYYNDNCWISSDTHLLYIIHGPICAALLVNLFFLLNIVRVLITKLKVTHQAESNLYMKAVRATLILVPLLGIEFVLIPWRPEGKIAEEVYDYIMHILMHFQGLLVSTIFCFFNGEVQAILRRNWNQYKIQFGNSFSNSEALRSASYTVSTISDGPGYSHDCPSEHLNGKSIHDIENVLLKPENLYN
T1 sequence (O60894 27-148): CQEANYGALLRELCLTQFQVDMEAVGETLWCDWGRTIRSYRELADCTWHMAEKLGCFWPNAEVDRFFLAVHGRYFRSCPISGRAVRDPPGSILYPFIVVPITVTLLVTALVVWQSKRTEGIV

IC50 (CGRP receptor [1])	IC50 (CGRP receptor [2]; Table 2)	IC50 (CGRP receptor [2]; Table 1)	Compound
0.01 to 10 nM	0.01 to 10 nM	–	O=C(N[C@@H]1Cc2cc(Cl)c3[nH]ncc3c2CN(Cc2ccccc2)C1=O)N1CCC(N2Cc3ccccc3NC2=O)CC1
0.01 to 10 nM	0.01 to 10 nM	–	CC(C)(C)CCN1Cc2c(ccc3[nH]ncc23)C[C@@H](NC(=O)N2CCC(N3Cc4ccccc4NC3=O)CC2)C1=O
0.01 to 10 nM	0.01 to 10 nM	–	CC(C)(C)CN1Cc2c(cc(Cl)c3[nH]ncc23)C[C@@H](NC(=O)N2CCC(N3Cc4ccccc4NC3=O)CC2)C1=O
0.01 to 10 nM	0.01 to 10 nM	–	CC(C)(C)CN1Cc2c(cc(Cl)c3[nH]ncc23)C[C@@H](CC(=O)N2CCC(N3Cc4ccccc4NC3=O)CC2)C1=O
0.01 to 10 nM	0.01 to 10 nM	–	CC(C)(C)CN1Cc2c(ccc3[nH]ncc23)CC(NC(=O)N2CCC(N3Cc4ccccc4NC3=O)CC2)C1=O (centres unmarked)
0.01 to 10 nM	0.01 to 10 nM	–	O=C(NC1Cc2ccc3[nH]ncc3c2CN(CCc2ccncc2)C1=O)N1CCC(N2Cc3ccccc3NC2=O)CC1 (centres unmarked)
–	0.01 to 10 nM	–	O=C(N[C@@H]1Cc2cc3cn[nH]c3cc2CN(Cc2ccccc2)C1=O)N1CCC(N2Cc3ccccc3NC2=O)CC1
0.01 to 10 nM	0.01 to 10 nM	–	CC(C)(C)CN1Cc2c(cc(Cl)c3[nH]ncc23)C[C@@H](CC(=O)N2CCC(N3Cc4cccc(F)c4NC3=O)CC2)C1=O
0.01 to 10 nM	0.01 to 10 nM	–	CC(C)(C)CN1Cc2c(cc(Cl)c3[nH]ncc23)C[C@@H](CC(=O)N2CCC(N3Cc4ccccc4CC3=O)CC2)C1=O
0.01 to 10 nM	0.01 to 10 nM	–	CC(C)(C)CN1Cc2c(cc(Cl)c3[nH]ncc23)C[C@@H](CC(=O)N2CCC(c3cc4ccccc4[nH]c3=O)CC2)C1=O
0.01 to 10 nM	0.01 to 10 nM	–	CC(C)(C)CN1Cc2c(cc(Cl)c3[nH]ncc23)C[C@@H](CC(=O)N2CCC(n3cc(-c4ccccc4)[nH]c3=O)CC2)C1=O
0.01 to 10 nM	0.01 to 10 nM	–	CC(C)(C)CN1Cc2c(cc(Cl)c3[nH]ncc23)C[C@@H](CC(=O)N2CCC(n3cc(-c4ccccn4)[nH]c3=O)CC2)C1=O
0.01 to 10 nM	0.01 to 10 nM	–	CC(C)(C)CN1Cc2c(cc(Cl)c3[nH]ncc23)C[C@@H](CC(=O)N2CCC3(CC2)NC(=O)Nc2ccccc23)C1=O
0.01 to 10 nM	0.01 to 10 nM	–	O=C(C[C@@H]1Cc2cc(Cl)c3[nH]ncc3c2CN(Cc2ccncc2)C1=O)N1CCC(N2Cc3ccccc3NC2=O)CC1
0.01 to 10 nM	0.01 to 10 nM	–	O=C(C[C@@H]1Cc2cc(Cl)c3[nH]ncc3c2CN(Cc2ccncc2)C1=O)N1CCC(N2Cc3cccc(F)c3NC2=O)CC1
0.01 to 10 nM	0.01 to 10 nM	–	O=C(C[C@@H]1Cc2cc(Cl)c3[nH]ncc3c2CN(Cc2ccncc2)C1=O)N1CCC(c2cc3ccccc3[nH]c2=O)CC1
0.01 to 10 nM	0.01 to 10 nM	–	O=C(C[C@@H]1Cc2cc(Cl)c3[nH]ncc3c2CN(Cc2ccncc2)C1=O)N1CCC(n2cc(-c3ccccc3)[nH]c2=O)CC1
0.01 to 10 nM	0.01 to 10 nM	–	O=C(C[C@@H]1Cc2cc(Cl)c3[nH]ncc3c2CN(Cc2ncc[nH]2)C1=O)N1CCC(N2Cc3ccccc3NC2=O)CC1
–	0.01 to 10 nM	–	CC(C)(C)CN1Cc2c(cc(Cl)c3[nH]ncc23)C[C@@H](CC(=O)Nc2ccc3c(c2)CCC2(C3)NC(=O)NC2=O)C1=O (some centres unmarked)
–	0.01 to 10 nM	–	CC(C)(C)CN1Cc2c(ccc3[nH]ncc23)CC(N/C(=N/C#N)N2CCC(N3Cc4ccccc4NC3=O)CC2)C1=O (centres unmarked)

IC50 (CGRP receptor [1])	IC50 (CGRP receptor [2]; Table 2)	IC50 (CGRP receptor [2]; Table 1)	Compound
–	0.01 to 10 nM	–	O=C(C[C@@H]1Cc2cc(Cl)c3[nH]ncc3c2CN(CC(F)(F)F)C1=O)N1CCC(c2cc3cccnc3[nH]c2=O)CC1
–	0.01 to 10 nM	–	O=C(C[C@@H]1Cc2cc(Cl)c3[nH]ncc3c2CN(CC(F)(F)F)C1=O)N1CCC(c2cc3ccccc3[nH]c2=O)CC1
–	0.01 to 10 nM	–	O=C(C[C@@H]1Cc2cc(Cl)c3[nH]ncc3c2CN(CC(F)(F)F)C1=O)N1CCC(c2cc3cccc(F)c3[nH]c2=O)CC1
–	0.01 to 10 nM	–	CC(C)(C)CN1Cc2c(cc(Br)c3[nH]ncc23)C[C@@H](CC(=O)N2CCC(c3cc4ccccc4[nH]c3=O)CC2)C1=O
–	0.01 to 10 nM	–	O=C(C[C@@H]1Cc2cc(Br)c3[nH]ncc3c2CN(CC(F)(F)F)C1=O)N1CCC(c2cc3cccnc3[nH]c2=O)CC1
–	0.01 to 10 nM	–	O=C(C[C@@H]1Cc2cc(Br)c3[nH]ncc3c2CN(CC(F)(F)F)C1=O)N1CCC(c2cc3ccccc3[nH]c2=O)CC1
–	0.01 to 10 nM	–	CC(C)(C)CN1Cc2c(cc(Cl)c3[nH]ncc23)C[C@@H](N/C(=N/C#N)N2CCC(c3cc4ccccc4[nH]c3=O)CC2)C1=O
–	0.01 to 10 nM	–	Cc1cc2c(c3cn[nH]c13)CN(CC(C)(C)C)C(=O)[C@H](CC(=O)N1CCC(c3cc4ccccc4[nH]c3=O)CC1)C2
–	0.01 to 10 nM	–	Cc1cc2c(c3cn[nH]c13)CN(CC(F)(F)F)C(=O)[C@H](CC(=O)N1CCC(c3cc4ccccc4[nH]c3=O)CC1)C2
–	10 to 100 nM	–	CCc1cc2c(c3cn[nH]c13)CN(CC(F)(F)F)C(=O)[C@H](CC(=O)N1CCC(c3cc4cccc(F)c4[nH]c3=O)CC1)C2
–	0.01 to 10 nM	–	O=C(C[C@@H]1Cc2cc(Br)c3[nH]ncc3c2CN(CC2CC2)C1=O)N1CCC(c2cc3ccccc3[nH]c2=O)CC1
–	0.01 to 10 nM	–	COCCN1Cc2c(cc(Br)c3[nH]ncc23)C[C@@H](CC(=O)N2CCC(c3cc4ccccc4[nH]c3=O)CC2)C1=O
–	10 to 100 nM	–	CC(C)(C)CN1Cc2c(cc(Cl)c3[nH]ncc23)C[C@@H](CC(=O)N2CCC(c3cc4cc(F)c(F)cc4[nH]c3=O)CC2)C1=O
–	0.01 to 10 nM	–	CC(C)(C)CN1Cc2c(cc(Cl)c3[nH]ncc23)C[C@@H](CC(=O)N2CCC(c3cc4ccc(Cl)cc4[nH]c3=O)CC2)C1=O
–	0.01 to 10 nM	–	CC(C)(C)CN1Cc2c(cc(Cl)c3[nH]ncc23)C[C@@H](CC(=O)N2CCC(c3cc4ccc(F)cc4[nH]c3=O)CC2)C1=O
–	–	0.01 to 10 nM	CC(C)(C)CN1Cc2c(cc(Cl)c3[nH]ncc23)C[C@@H](CC(=O)N2CCC(c3cc4sc(Br)cc4[nH]c3=O)CC2)C1=O (mixture of isomers)
–	–	0.01 to 10 nM	CC(C)(C)CN1Cc2c(cc(Cl)c3[nH]ncc23)C[C@@H](CC(=O)N2CCC(c3cc4scc(Cl)c4[nH]c3=O)CC2)C1=O (mixture of isomers)
0.01 to 10 nM	–	–	CC(C)(C)CN1Cc2c(ccc3[nH]ncc23)C[C@@H](CC(=O)N2CCC(N3Cc4ccccc4NC3=O)CC2)C1=O [drawing 84]
–	100 to 1000 nM	–	CC(C)(C)CN1Cc2c(ccc3[nH]ncc23)C[C@@H](CC(=O)N2CCC(N3Cc4ccccc4NC3=O)CC2)C1=O [drawing 135]

Source: US7470680B2, “Constrained compounds as CGRP-receptor antagonists” (Bristol-Myers Squibb Company, priority 2006, dated 2008)
